Source: US9242008B2, “Mineral amino-acid complexes of fatty acids” (Thetis Pharmaceuticals LLC, priority 2014, dated 2016)

Legend:
[1] = Physical stability study (proton NMR after exposure to air at room temperature); type: physicochemical
Description: FIG. 1: Proton NMR spectrum of magnesium bis-lysinate bis-EPA taken on the day the compound was synthesized (upper trace) and 60-days later (lower trace) with the compound having been exposed to air at room temperature for the entire 60-day period.
The compounds of the invention are remarkably stable compared to omega-3 polyunsaturated free fatty acids, which typically show evidence of oxidative degradation with hours of exposure to atmospheric oxygen. […] The upper tracing in FIG. 1 is a proton NMR spectrum of magnesium bis-lysinate bis-EPA taken on the day the compound was synthesized. The lower tracing is the NMR taken 60-days later with the compound having been exposed to air at room temperature for the entire period.

[2] = single dose, oral pharmacokinetic study in rats (total EPA plasma levels); type: in vivo
Description: The results of a single dose, oral pharmacokinetic study in rats for a compound of Formula III (designated TP-252, Mg-Lys2-EPA2) are shown in Table 1 below. One of the parameters shown in Table 1 is the area under the curve (AUC), which is the integral of a plot of concentration of drug in blood plasma against time. The AUC is proportional to the total amount of the active pharmaceutical agent (API) that reaches the blood circulation. In this example, the API (or analyte) is EPA. AUC and Cmax are given for the compound of Formula III, EPA free fatty acid (EPA FFA), and EPA ethyl ester (EPA EE). EPA ethyl ester is the FDA-approved form of EPA.

time chemically stable ([1]; room temperature, exposed to air): at least 60 days | Baseline and EPA Molar Dose Equivalent Adjusted Cmax of Total EPA in plasma ([2]; total dose 40.0 mg/kg, analyte EPA, Cmax minus predose level, multiplied by EPA molar dose adjustment factor): 13200 ng/mL | Baseline and EPA Molar Dose Equivalent Adjusted AUC0-18 hrs of Total EPA in plasma ([2]; total dose 40.0 mg/kg, analyte EPA, baseline adjusted and multiplied by EPA molar dose adjustment factor): 133 µg·h/mL
SMILES: CC/C=C\C/C=C\C/C=C\C/C=C\C/C=C\CCCC(=O)O.CC/C=C\C/C=C\C/C=C\C/C=C\C/C=C\CCCC(=O)O.NCCCC[C@H](N)C(=O)[O-].NCCCC[C@H](N)C(=O)[O-].[Mg+2] [TP-252, magnesium bis-lysinate bis-EPA dihydrate]
proton NMR evidence of oxidation or degradation ([1]; after 60 days exposed to air at room temperature versus day of synthesis): no evidence of oxidation or degradation by other mechanisms | EPA delivered to the blood plasma versus equivalent doses of EPA free fatty acid or EPA ethyl ester [2]: delivers significantly more EPA to the blood plasma
